From ChEMBL document CHEMBL5608195, “Identification and biological evaluation of fused tetrahydroisoquinoline derivatives as Wnt/β-catenin signaling inhibitors to suppress colorectal cancer” (Eur J Med Chem, 2024)

Key:
[1] = tested on: RKO; experiment: Antiproliferative activity against human RKO cells incubated for 24 hrs by MTT assay; format: functional, cell-based
[2] = tested on: HCT-116; experiment: Antiproliferative activity against human HCT-116 cells incubated for 24 hrs by MTT assay; format: functional, cell-based; conditions: HCT-116, 24 h
[3] = tested on: HCT-116; experiment: Antiproliferative activity against human HCT-116 cells assessed as inhibition rate at 20 uM incubated for 24 hrs by MTT assay relative to control; format: functional

Cc1ccc2c(c1)C1(C)c3[nH]c4ccc(Cl)cc4c3CCN1CC2 (stereo not drawn)
IC50 [1]: 7.28 µM | IC50 [2]: 7.52 µM | inhibition at 20 µM [3]: 92.1%

Cc1ccc2[nH]c3c(c2c1)CCN1CCc2cc(Cl)ccc2C31C (stereo not drawn)
inhibition at 20 µM [3]: 22.8%

COc1ccc2[nH]c3c(c2c1)CCN1Cc2ccccc2C31C (stereo not drawn)
inhibition at 20 µM [3]: 28.9%

Cc1ccc2c(c1)CCN1CCc3c([nH]c4ccc(Cl)cc34)C21C (stereo not drawn)
IC50 [1]: 6.48 µM | IC50 [2]: 6.36 µM | inhibition at 20 µM [3]: 88.3%

Cc1ccc2c(c1)C1(C)c3[nH]c4ccccc4c3CCN1C2 (stereo not drawn)
inhibition at 20 µM [3]: 36%

CC12c3ccccc3CCN1CCc1c2[nH]c2ccc(Cl)cc12 (stereo not drawn)
inhibition at 20 µM [3]: 83.7%

CC12c3ccc(F)cc3CCN1CCc1c2[nH]c2ccc(Cl)cc12 (stereo not drawn)
inhibition at 20 µM [3]: 88.7%

CC12c3ccc(Cl)cc3CCN1CCc1c2[nH]c2ccc(F)cc12 (stereo not drawn)
inhibition at 20 µM [3]: 18.4%

CC12c3ccccc3CCN1CCc1c2[nH]c2ccc(OCc3ccccc3)cc12 (stereo not drawn)
inhibition at 20 µM [3]: 20.4%

CC12c3cc(F)ccc3CCN1CCc1c2[nH]c2ccc(Cl)cc12 (stereo not drawn)
inhibition at 20 µM [3]: 80.7%

CC12c3ccccc3CN1CCc1c2[nH]c2ccc(Cl)cc12 (stereo not drawn)
inhibition at 20 µM [3]: 43.8%

C[C@@]12c3ccc(Cl)cc3CCN1CCc1c2[nH]c2ccc(Cl)cc12
inhibition at 20 µM [3]: 84%

CC12c3ccccc3CCN1CCc1c2[nH]c2ccc(Br)cc12 (stereo not drawn)
inhibition at 20 µM [3]: 3.6%

Cc1ccc2[nH]c3c(c2c1)CCN1CCc2ccccc2C31C (stereo not drawn)
inhibition at 20 µM [3]: 59.5%

COc1ccc2c(c1)C1(C)c3[nH]c4ccc(Cl)cc4c3CCN1CC2 (stereo not drawn)
inhibition at 20 µM [3]: 77%

CC12c3cc(F)ccc3CC(=O)N1CCc1c2[nH]c2ccc(Cl)cc12 (stereo not drawn)
inhibition at 20 µM [3]: 49%

COc1ccc2[nH]c3c(c2c1)CCN1CCc2ccccc2C31C (stereo not drawn)
inhibition at 20 µM [3]: 10.9%

CC12c3ccccc3CCN1CCc1c2[nH]c2ccc(F)cc12 (stereo not drawn)
inhibition at 20 µM [3]: 7.8%

CC12c3ccccc3CC(=O)N1CCc1c2[nH]c2ccccc12 (stereo not drawn)
inhibition at 20 µM [3]: 65.2%

CC12c3ccc(Cl)cc3CCN1CCc1c2[nH]c2ccc(Br)cc12 (stereo not drawn)
inhibition at 20 µM [3]: 3.6%

COc1ccc2[nH]c3c(c2c1)CCN1CCc2cc(Cl)ccc2C31C (stereo not drawn)
inhibition at 20 µM [3]: 66.7%

Cc1ccc2[nH]c3c(c2c1)CCN1Cc2ccccc2C31C (stereo not drawn)
inhibition at 20 µM [3]: 43.9%

CC12c3cc(O)ccc3CN1CCc1c2[nH]c2ccc(Cl)cc12 (stereo not drawn)
inhibition at 20 µM [3]: 26.9%

C[C@]12c3ccc(Cl)cc3CCN1CCc1c2[nH]c2ccc(Cl)cc12
inhibition at 20 µM [3]: 81%

Cc1ccc2c(c1)C1(C)c3[nH]c4ccc(Cl)cc4c3CCN1C2 (stereo not drawn)
inhibition at 20 µM [3]: 64.6%

CC12c3ccc(Cl)cc3CC(=O)N1CCc1c2[nH]c2ccc(Cl)cc12 (stereo not drawn)
inhibition at 20 µM [3]: 70.3%

CC12c3cc(Cl)ccc3CCN1CCc1c2[nH]c2ccc(Cl)cc12 (stereo not drawn)
IC50 [1]: 6.84 µM | IC50 [2]: 6.77 µM | inhibition at 20 µM [3]: 89.1%
